According to patent US20210284615A1, “VORTIOXETINE ANALOGUE AND USE AND PREPARATION THEREOF” (priority 2016, published 2021):
“And” between values parts separate entries of the source, which are not always exact repeats. Equal values may be shown once. Read-outs that look alike come from different tables or passages of the source.

Columns and labels:
SLC6A4 = target: T1, SLC6A4 (Homo sapiens, UniProt P31645); experiment: [3H]5-hydroxytryptamine (5-HT) reuptake inhibition in CHO cells transfected with pcDNA3.1-SLC6A4-His; format: cell-based; settings: 25 nM [3H]5-hydroxytryptamine, 30 min
T1 construct: host or cells: CHO cells (Chinese hamster ovary, Cat #CCL-61), transient transfection with FuGENE HD
Experimental: SLC6A4 gene from plasmid Pcmv6-XL4-SLC6A4 (Origene, Cat #SC119478) was amplified by PCR (polymerase chain reaction), and a HIS tag was added to the C terminal, and then inserted into pcDNA3.1 (−) vector at 5′EcoR1 and 31-lind111 restriction enzyme cutting sites to build pcDNA3.1-SLC6A4-His.
CHO cells in logarithmic growth period (Chinese hamster ovary cells, Institute of Cell Biology, Chinese Academy of Sciences, Cat #CCL-61) were collected and counted. The cells were resuspended in F-12 culture media (Gibco, Cat #11330-032) and inoculated on a 96-well plate with 100 μL (20000 cells/well) per well. It was incubated in 5% CO2 incubator (relative humidity 100%) at 37° C. for 24 h.
The above modified plasmids (0.48 μg) were diluted with Opti-MEM culture medium (25 μL, Gibco, Cat #11058021), and blew gently to mix homogenously. […]
Compound 1 and vortioxetine were respectively diluted to 1 mM with Opti-MEM culture medium, then diluted 10 times per 4 times gradient, and then added to the transfected cell wells by 20 μL/well (the corresponding concentrations were 100 μM-0.0004 μM, in total of 10 concentration points, the concentration ratio between each concentration point was 4, each concentration included 3 parallel wells). […] 50 μL of lysed cell fluid was taken, and 200 μL of scintillation solution was added thereto, and reading was conducted with MicroBeta2. […]

[1] = Determination of lipid-water partition coefficient; format: physicochemical
Experimental: Vortioxetine hydrobromide (6 mg) and Compound 3 (6 mg) were dissolved respectively in a mixed solution composed of a pH 7.4 of phosphate buffer (3 ml) and n-octyl alcohol (3 ml), and the mixture was allowed to stand for 3 hours at 37° C. The concentration of each compound in water phase and oil phase was respectively determined, and calculated by logP=[…]log (Coil/Cwater). The results are as follows: logPvortioxetine=2.1; logPcompound 3=2.7.

[2] = tested on: 5-HTP induced head-twitch model; experiment: Head-twitch test in mice (5-HTP induced); format: in vivo, KM mice; settings: 20 mg/kg intraperitoneal injection, then 200 mg/kg 5-HTP, within 0-10 min
Experimental: KM mice (male, 18-22 g, Experimental Animal Center, Chongqing Medical University) were randomly divided into 6 mice per group. According to the below table, the animals in each experiment group were administrated a solution of corresponding agent, and then 200 mg/kg 5-HTP (5-hydroxytryptophan). The effects of vortioxetine and Compound 3 on the frequency of head-twitch of mice within 0-10 min were determinate (see [i]Brit. J. Pharmacol. (1963), 20, 106-120 for detailed experiment methods).

[3] = Test of blood drug level in rats; format: in vivo, SD rats; settings: for Blood drug level: intragastric, Vortioxetine 20 mg/kg (rats A1-A4), Compound 3 22.8 mg/kg (rats B1-B4), individual rats, in ng/mL (unit assumed)
Experimental: SD rats (male, 180-220 g, Experimental Animal Center, Chongqing Medical University) were randomly divided into groups with 4 rats per group. Food was prohibited, but not water, for 8 hours before administration.
Blood samples were collected from the orbital venous plexus at 0, 1, 2, 4, 6, 8 h after administration, wherein at least 0.3 ml was taken at each time point, and heparin was used for anticoagulant. The obtained whole blood (200 μl) was added to acetonitrile (800 LA, vortexed and shaken for 1 min, and then centrifuged for 10 min at 12000 rpm. The supernatant was taken and kept at −20° C., and the blood drug level of the supernatant was determined by LC/MS/MS. The data for each animal in groups are as follows: […]

KM mice = experiment: Forced swimming test in mice; format: in vivo; settings: 20 mg/kg oral gastric lavage, 1 hour after administration, last 4 min of 6 min swim
Experimental: KM mice (male, 38-42 g, Experimental Animal Center, Chongqing Medical University) were randomly divided into groups with 6 mice per group. After fasted for 4 h, the mice were placed in a glass cylinder with a diameter of 18 cm, height of 40 cm, water depth of 15 cm (water temperature 25° C.) to swim for 6 min, then dried with a warm air blower. The animals in each experiment group were administrated a solution of corresponding agent (Oral administration of gastric lavage, 20 mg/kg) according to the table below. After 1 hour of administration, the mice were placed in a glass cylinder with a diameter of 18 cm, height of 40 cm, water depth of 15 cm (water temperature 25° C.) to swim for 6 min. The swimming of the mice was recorded within 6 min by a camera system, and the data were automatically collected and analyzed by Noldus software. The quiescent time during swimming was recorded and counted within the last 4 min (for the experiment method, see THE JOURNAL OF PHARMACOLOGY AND EXPERIMENTAL THERAPEUTICS (2012), Vol. 340, No. 3: 666-675).

[4] = human, cited from earlier work
[5] = Test of brain concentration and plasma concentration; format: in vivo, KM mice; settings: male, KM, mouse, Compound 1 23.6 mg/kg
Experimental: KM mice (male, 18-22 g, Experimental Animal Center, Chongqing Medical University) were randomly divided into groups with 6 mice per group. In accordance with the table below, the animals in each group were respectively injected intravenously with equal moles of vortioxetine (20 mg/kg) and Compound 1 (23.6 mg/kg). Samples of blood and brain tissue of the mouse were taken at 1 and 2 hours after injection. The concentrations of vortioxetine and Compound 1 in blood plasma and brain tissue were respectively measured, and the ratios (concentration in brain tissue/concentration in blood plasma) were calculated.

[6] = oral administration; cited from earlier work
[7] = 2 h after oral 20 mg/kg, male Listar Hooded rats; cited from earlier work

T1 sequence (P31645 whole entry): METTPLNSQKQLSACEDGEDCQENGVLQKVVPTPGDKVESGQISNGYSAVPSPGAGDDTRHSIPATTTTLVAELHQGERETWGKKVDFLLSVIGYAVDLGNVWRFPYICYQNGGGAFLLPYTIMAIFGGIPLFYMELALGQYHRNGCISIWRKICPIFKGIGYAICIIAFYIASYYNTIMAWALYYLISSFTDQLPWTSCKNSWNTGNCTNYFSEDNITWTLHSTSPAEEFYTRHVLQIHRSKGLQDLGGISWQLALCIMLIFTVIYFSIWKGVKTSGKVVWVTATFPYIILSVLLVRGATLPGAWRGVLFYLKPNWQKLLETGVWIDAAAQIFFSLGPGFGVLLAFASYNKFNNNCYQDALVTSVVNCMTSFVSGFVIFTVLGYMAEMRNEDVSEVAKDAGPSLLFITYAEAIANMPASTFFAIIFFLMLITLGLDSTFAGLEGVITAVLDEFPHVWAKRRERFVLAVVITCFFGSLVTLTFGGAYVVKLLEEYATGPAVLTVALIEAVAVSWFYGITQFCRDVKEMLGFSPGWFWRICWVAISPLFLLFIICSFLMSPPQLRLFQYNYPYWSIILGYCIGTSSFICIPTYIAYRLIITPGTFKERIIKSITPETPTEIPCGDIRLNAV

SMILES: Cc1cc(C(F)(F)F)ccc1Sc1ccccc1N1CCNCC1 [Compound 1, 1-[2-(2-methyl-4-trifluoromethylphenylthio)phenyl]piperazine]
- IC50 (SLC6A4): 231 nM
- melting point: 206 to 208 °C

SMILES: Br.Cc1cc(C(F)(F)F)ccc1Sc1ccccc1N1CCNCC1 [Compound 3, 1-[2-(2-methyl-4-trifluoromethylphenylthio)phenyl] piperazine hydrobromide]
- logP at 3 h ([1]; pH 7.4): 2.7
- Number of head-twitch [2]: 45.0 ± 29.0
- Blood drug level ([3]; 0 h, hydrobromide): 0.815 and 2.195 and 1.62 and 0.975
- Blood drug level ([3]; 1 h, hydrobromide): 458.925 and 276.675 and 351.38 and 412.775
- Blood drug level ([3]; 2 h, hydrobromide): 587.71 and 237.72 and 441.03 and 648.63
- Blood drug level ([3]; 4 h, hydrobromide): 726.37 and 181.565 and 334.54 and 297.135
- Blood drug level ([3]; 6 h, hydrobromide): 421.06 and 139.79 and 230.075 and 159.715
- Blood drug level ([3]; 8 h, hydrobromide): 386.805 and 37.895 and 109.47 and 78.5
- blood drug levels compared with equal moles of vortioxetine ([3]; oral, all time points): higher
- Quiescent time (KM mice): 107 ± 31 s
- melting point: 170 to 172 °C

SMILES: Cc1cc(C(=O)O)ccc1Sc1ccccc1N1CCNCC1 [LUAA34443]
- share of LUAA34443 and LUAA34443 glucuronide together ([4]; oral 14C-vortioxetine free base 50 mg, one combined value for both metabolites): 44%

SMILES: Cc1ccc(Sc2ccccc2N2CCNCC2)c(C)c1 [Vortioxetine]
- logP at 3 h ([1]; n-octyl alcohol / pH 7.4 phosphate buffer, pH 7.4 phosphate buffer / n-octyl alcohol, 3 hours at 37° C., read-out: logP (lipid-water partition coefficient)): 2.1
- IC50 (SLC6A4): 267 nM
- Number of head-twitch [2]: 56 ± 10
- Kp at 1 h ([5]; brain/plasma, 1 hour after intravenous injection, vortioxetine 20 mg/kg, read-out: Concentration ratio in brain tissue and plasma): 60.2 ± 8.64
- Kp at 2 h ([5]; brain/plasma, 2 hours after intravenous injection, vortioxetine 20 mg/kg, read-out: Concentration ratio in brain tissue and plasma): 44.6 ± 13.1
- concentration at 1 h ([5]; brain, 1 hour after intravenous injection, equal moles: vortioxetine 20 mg/kg, read-out: Concentration in brain tissue): 15400 ± 1400 ng/g
- concentration at 2 h ([5]; brain, 2 hours after intravenous injection, vortioxetine 20 mg/kg, read-out: Concentration in brain tissue): 7490 ± 560 ng/g
- concentration at 1 h ([5]; plasma, 1 hour after intravenous injection, vortioxetine 20 mg/kg, read-out: Blood drug level): 261 ± 53.5 ng/mL
- concentration at 2 h ([5]; plasma, 2 hours after intravenous injection, vortioxetine 20 mg/kg, read-out: Blood drug level): 167 ± 49.5 ng/mL
- Blood drug level ([3]; 0 h): 0
- Blood drug level ([3]; 1 h): 48.59 and 163.07 and 183.96 and 256.56
- Blood drug level ([3]; 2 h): 85.335 and 149.685 and 164.88 and 195.125
- Blood drug level ([3]; 4 h): 34.54 and 90.305 and 94.53 and 164.845
- Blood drug level ([3]; 6 h): 17.095 and 47.74 and 40.91 and 72.6
- Blood drug level ([3]; 8 h): 7.13 and 6.76 and 23.35 and 26.315
- Quiescent time (KM mice): 136 ± 37 s
- bioavailability [6]: about 75%
- distribution concentration in brain [7]: 2.77 µg/g
- distribution concentration in kidney [7]: 10.3 µg/g
- distribution concentration in liver [7]: 22.3 µg/g
- distribution concentration in lung [7]: 15.5 µg/g
- parent drug share in plasma ([4]; 4 hours after oral 14C-vortioxetine free base 50 mg): about 8%
